Values joined by “and” are separate entries in the source; they are usually repeats but may differ in a detail not shown here. Equal values may be shown once.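 A five-concentration, 48-hour dose response in 96-well plates underlies each endpoint, interpolated linearly between surrounding concentrations. Here, GI50 denotes the concentration required for 50% inhibition of growth. TGI: total growth inhibition.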
Legend:
Test in all cases: NCI tumour cell line growth inhibition, 48 h
DMS 273 small cell lung = tested on: DMS 273 small cell lung
DMS 114 small cell lung = tested on: DMS 114 small cell lung
DLD-1 colon = tested on: DLD-1 colon
XF 498 CNS = tested on: XF 498 CNS
P388/ADR leukemia = tested on: P388/ADR leukemia
SN12K1 renal = tested on: SN12K1 renal
SNB-78 CNS = tested on: SNB-78 CNS
HOP-18 NSCLC = tested on: HOP-18 NSCLC
KM20L2 colon = tested on: KM20L2 colon
LXFL 529 NSCLC = tested on: LXFL 529 NSCLC
RXF-631 renal = tested on: RXF-631 renal

For CC(=O)Nc1ccc(C(=O)N2N=C(C)/C(=C/c3cccc(O)c3)C2=O)cc1, the TGI (DMS 273 small cell lung) was > 100 µM, the TGI (DMS 114 small cell lung) was > 100 µM and the TGI (DLD-1 colon) was > 100 µM. For the same compound, the TGI (XF 498 CNS) was > 100 µM.
For CSc1nc2c(ncn2C2OCC(O)C(O)C2O)c(=O)[nH]1 (centres undefined), the TGI (P388/ADR leukemia) was > 100 µM, the TGI (SN12K1 renal) was > 100 µM and the TGI (DMS 273 small cell lung) was > 100 µM. For the same compound, the TGI (DMS 114 small cell lung) was > 100 µM, the TGI (DLD-1 colon) was > 100 µM and the TGI (SNB-78 CNS) was > 100 µM. For the same compound, the TGI (HOP-18 NSCLC) was > 100 µM, the TGI (XF 498 CNS) was > 100 µM and the TGI (KM20L2 colon) was > 100 µM.
Cc1c(-c2coc(-c3ccc(Cl)cc3)n2)c(=O)n(-c2ccccc2)n1C was tested, and the TGI (DMS 273 small cell lung) was > 100 µM, the TGI (DLD-1 colon) was > 100 µM and the TGI (SNB-78 CNS) was > 100 µM. For the same compound, the TGI (XF 498 CNS) was > 100 µM, the TGI (LXFL 529 NSCLC) was > 100 µM and the TGI (KM20L2 colon) was > 100 µM.
Cc1[nH]c(=O)nc(N/N=C/c2ccc(O)cc2)c1C(=O)Nc1ccc(Cl)cc1 was tested, and the TGI (DMS 273 small cell lung) was > 100 µM, the TGI (DMS 114 small cell lung) was > 100 µM and the TGI (DLD-1 colon) was > 100 µM. The TGI (SNB-78 CNS) was > 100 µM, the TGI (HOP-18 NSCLC) was > 100 µM and the TGI (LXFL 529 NSCLC) was > 100 µM. The TGI (KM20L2 colon) was > 100 µM and the TGI (RXF-631 renal) was > 100 µM.
For COc1cc(CC(=O)c2ccc3c(c2)OCO3)cc(OC)c1OC, the TGI (DMS 114 small cell lung) was 92.7 µM, the TGI (DLD-1 colon) was > 100 µM and the TGI (SNB-78 CNS) was > 100 µM. For the same compound, the TGI (HOP-18 NSCLC) was > 100 µM, the TGI (LXFL 529 NSCLC) was > 100 µM and the TGI (KM20L2 colon) was > 100 µM. The TGI (RXF-631 renal) was > 100 µM.
In the case of COc1cc2c(c(OC)c1OC)-c1ccc(SC)c(=O)cc1[C@@H](NC(=O)c1ccc(C#N)cc1)CC2, the TGI (DMS 273 small cell lung) is reported as > 46.3 µM, the TGI (DMS 114 small cell lung) is reported as < 0.01 µM and the TGI (DLD-1 colon) is reported as > 100 µM. The TGI (SNB-78 CNS) was 83.7 µM, the TGI (LXFL 529 NSCLC) was 18.3 µM and the TGI (KM20L2 colon) was < 0.01 µM.
With COc1cc2cc3c4c(cc(OC)c(OC)c4c2cc1OC)CCN3C(=O)OCCBr the TGI (DMS 273 small cell lung) was > 100 µM, the TGI (DLD-1 colon) was > 100 µM and the TGI (SNB-78 CNS) was > 100 µM. For the same compound, the TGI (XF 498 CNS) was > 100 µM and the TGI (KM20L2 colon) was > 100 µM.
For Fc1nc(F)nc(-c2c3ccccc3c3n2CCS3)n1, the TGI (DMS 273 small cell lung) was > 100 µM, the TGI (DMS 114 small cell lung) was > 100 µM and the TGI (DLD-1 colon) was > 100 µM. For the same compound, the TGI (SNB-78 CNS) was > 100 µM, the TGI (XF 498 CNS) was > 100 µM and the TGI (LXFL 529 NSCLC) was > 100 µM. For the same compound, the TGI (KM20L2 colon) was > 100 µM.
With CC(=O)c1c(O)c(C)c(O)c2c1OC1=CC(=O)C(C(C)=O)C(=O)C12C (centres undefined) the GI50 (P388/ADR leukemia) was 5.92 µM and 20.1 µM, the TGI (P388/ADR leukemia) was 44.1 µM and 61.5 µM and the GI50 (SN12K1 renal) was 4.99 µM and 14.1 µM. The TGI (SN12K1 renal) was 19.4 µM and 39.3 µM, the GI50 (DMS 273 small cell lung) was 3.74 µM and 7.53 µM and the TGI (DMS 273 small cell lung) was 11.9 µM and 22.5 µM. For the same compound, the GI50 (DMS 114 small cell lung) was 6.22 µM and 18.5 µM, the TGI (DMS 114 small cell lung) was 29.9 µM and 58.3 µM and the GI50 (DLD-1 colon) was 4.9 µM and 16.1 µM. For the same compound, the TGI (DLD-1 colon) was 29.9 µM and 69 µM, the GI50 (SNB-78 CNS) was 8.87 µM and 28.8 µM and the TGI (SNB-78 CNS) was 48.6 µM and 80.4 µM. For the same compound, the GI50 (HOP-18 NSCLC) was 3.28 µM and 14.6 µM, the TGI (HOP-18 NSCLC) was 10.6 µM and 67.2 µM and the TGI (XF 498 CNS) was 0.807 µM and 0.835 µM. For the same compound, the GI50 (KM20L2 colon) was 4.99 µM and 27 µM and the TGI (KM20L2 colon) was 16.9 µM and 65.3 µM.
In the case of O=C(CCN1CCCCC1CO)Nc1ccc2c(c1)C(=O)c1ccc(NC(=O)CCN3CCCCC3CO)cc1C2=O (centres undefined), the TGI (DMS 273 small cell lung) is reported as 19.2 µM, the TGI (DMS 114 small cell lung) is reported as 30.9 µM and the TGI (SNB-78 CNS) is reported as 34.6 µM. It also gave a TGI (LXFL 529 NSCLC) of 9.71 µM and a TGI (KM20L2 colon) of 76.4 µM.

From PubChem BioAssay (NCI)
